Results: article PMC8409457, “An evolution-inspired strategy to design disulfide-rich peptides tolerant to extensive sequence manipulation” (Chemical Science, 2021)
pKi: −log10 of the molar value. Where a SMILES comes first, the peptide text is derived from it. Bridges are numbered along the chain shown (N, C = ends).

Experiments:
Bcl-2 = target: T1, Bcl-2 (Homo sapiens, UniProt P10415); experiment: Surface plasmon resonance (SPR), binding to immobilized Sumo-Bcl-2; conditions: for Binding affinity to Bcl-2 (SPR), in words: SPR sensorgrams, peptide 160–2560 nM
T1 construct: made in house; host or cells: E. coli
Method: (§1) 1.7 Surface plasmon resonance (SPR) assays
(§2) SPR assays were performed using a Biacore T200. Target proteins (Sumo-Bcl-2 and […]
(§3) to reach a target response of 1000 RU. Flow cell Fc3 that was not immobilized with proteins was used as the reference channel. […]

MDM2 = MDM2 (Homo sapiens, UniProt Q00987); experiment: Fluorescence polarization competition assay, binding to MDM2
Method: 1.6 Fluorescence polarization (FP) assays
Infinite® 200 PRO Microplate Reader. […]
data with the single-site binding model. […]
described above, and fluorescence anisotropies were recorded. The Ki value of the binding between […]
been described in our previous reports.1,6
as §1, §2

[1] = Thermal denaturation monitored using circular dichroism; assay type: physicochemical; conditions: CD, 50 μM peptide in water, 25–95 °C, ellipticity at 220 nm
Method: Circular dichroism (CD) spectra were measured using a 1.0 mm path length cuvette at room temperature (25 ℃). All measured peptides were dissolved in water to reach a concentration of 50
μM. The baseline signal (pure aqueous solution) were subtracted from each spectrum. CD spectra were recorded in a wavelength range of 190 ‒ 260 nm with a bandwidth of 2.0 nm, a date pitch of 1.0 nm, a response time of 8. 0 s, and a scanning speed of 50 nm/min. The thermal denaturation CD spectra were recorded in a temperature range of 25 ‒ 95 ℃ with a heating rate of 10 ℃/min. For temperature melts, the change of ellipticity at 220 nm was monitored as temperature increased f rom 25 to 95 °C in an increment of 10 °C. Other experimental conditions were consistent with those of […]

streptavidin = target: T2, streptavidin (Streptomyces avidinii, UniProt P22629); experiment: Surface plasmon resonance (SPR), binding to immobilized streptavidin; conditions: SPR sensorgrams, peptide 20–320 nM
T2 construct: purchased Biosynthesis Biotechnology (Beijing, China)
Method: as §1, §2, §3

chymotrypsin = experiment: Proteolytic stability of peptides toward chymotrypsin; assay type: in vitro ADME; conditions: 100 μM peptide, phosphate buffer 100 mM pH 7.4, 37 °C, HPLC, 0–180 min
Method: 1.9 Proteolytic stability of peptides
100 μM 15-Ala, 16-Ala, oxidized 15, and oxidized 16 were respectively treated with phosphate buffer (pH = 7.4, 100 mM) containing chymotrypsin at 37 °C . The chymotrypsin concentration used for the digestion of 15 - Ala and oxidized 15 is 0.3 μ g/mL . The chymotrypsin concentration used for the digestion of 16 - Ala and oxidized 16 is 5.0 μ g/mL . At pred e fined time s , 50 μ L aliqu ots were taken with a pipette , quenched with 70 μ L 10% HPO 3 , and analyzed by HPLC. […]

T1 sequence (P10415 whole entry, species assumed): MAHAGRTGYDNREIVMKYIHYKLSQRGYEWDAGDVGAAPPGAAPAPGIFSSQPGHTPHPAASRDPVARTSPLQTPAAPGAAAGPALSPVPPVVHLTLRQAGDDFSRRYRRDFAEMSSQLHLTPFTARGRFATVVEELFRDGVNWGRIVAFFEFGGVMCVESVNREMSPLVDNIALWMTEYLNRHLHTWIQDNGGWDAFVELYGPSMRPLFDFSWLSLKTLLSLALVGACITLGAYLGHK
T2 sequence (P22629 25-183): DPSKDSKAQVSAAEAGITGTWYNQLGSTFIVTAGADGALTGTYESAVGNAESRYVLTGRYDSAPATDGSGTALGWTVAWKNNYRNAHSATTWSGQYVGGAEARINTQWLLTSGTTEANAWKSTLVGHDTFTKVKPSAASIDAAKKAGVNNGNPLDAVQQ
Chain of MDM2 (Q00987 whole entry, species assumed): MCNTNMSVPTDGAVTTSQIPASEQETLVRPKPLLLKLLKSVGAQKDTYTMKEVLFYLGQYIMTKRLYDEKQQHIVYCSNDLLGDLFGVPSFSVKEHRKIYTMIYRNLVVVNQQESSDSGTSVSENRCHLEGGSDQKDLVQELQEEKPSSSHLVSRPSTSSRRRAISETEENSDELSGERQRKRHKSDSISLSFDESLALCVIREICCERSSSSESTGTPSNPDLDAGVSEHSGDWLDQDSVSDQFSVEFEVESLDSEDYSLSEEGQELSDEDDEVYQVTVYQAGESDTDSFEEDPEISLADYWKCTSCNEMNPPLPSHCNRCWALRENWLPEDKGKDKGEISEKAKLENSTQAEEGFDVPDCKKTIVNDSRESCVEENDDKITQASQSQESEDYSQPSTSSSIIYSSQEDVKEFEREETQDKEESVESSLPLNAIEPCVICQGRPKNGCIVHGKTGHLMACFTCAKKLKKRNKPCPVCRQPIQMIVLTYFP

Ac-GAMILLDTDIWAPASHPYAAPENIAA-NH2 [16-Ala, linear counterpart (Cys-to-Ala mutant) of 16]
Binding affinity to Bcl-2 (SPR), in words (Bcl-2): negligible affinity

CC[C@H](C)[C@@H]1NC(=O)[C@H](Cc2c[nH]c3ccccc23)NC(=O)[C@@H]2CCCN2C(=O)[C@@H]2CSSC[C@H](NC(=O)[C@@H]3CCCN3C(=O)[C@@H]3CSSC[C@@H](C(N)=O)NC(=O)[C@H](CSSC[C@H](NC(C)=O)C(=O)NCC(=O)N[C@@H](CO)C(=O)NCC(=O)N[C@@H](CO)C(=O)NCC(=O)N[C@@H](CO)C(=O)NCC(=O)N[C@@H](CO)C(=O)NCC(=O)N3)NC(=O)[C@H](CCCNC(=N)N)NC1=O)C(=O)N[C@@H]([C@@H](C)CC)C(=O)N[C@@H](Cc1c[nH]c3ccccc13)C(=O)N1CCC[C@H]1C(=O)N[C@@H](CCC(=O)O)C(=O)N[C@@H](CC(C)C)C(=O)N2 [compound 8] (Ac-CGSGSGSGSGCPCIWPELCPWIRCC-NH2; disulfide 1-24, 11-25, 13-19)
pKi (MDM2; PBS pH 7.4, room temperature, peptides HPLC-purified >95%): 6.79

CC[C@H](C)[C@@H]1NC(=O)[C@@H]2CSSC[C@H](NC(=O)[C@H](CC(C)C)NC(=O)[C@H](CCC(=O)O)NC(=O)[C@@H]3CCCN3C(=O)[C@H](Cc3ccccc3)NC1=O)C(=O)N1CCC[C@H]1C(=O)N[C@@H](Cc1c[nH]c3ccccc13)C(=O)N[C@@H]([C@@H](C)CC)C(=O)N[C@@H](C(C)C)C(=O)N[C@H]1CSSC[C@H](NC(=O)CNC(C)=O)C(=O)N[C@@H](CCC(=O)O)C(=O)N[C@@H](CCCCN)C(=O)N[C@@H](C)C(=O)N[C@@H]([C@@H](C)O)C(=O)N[C@@H](CCC(=O)O)C(=O)N[C@@H](CO)C(=O)N[C@@H](CCC(=O)O)C(=O)N[C@@H](CO)C(=O)N3CCC[C@H]3C(=O)N[C@@H](CSSC[C@@H](C(N)=O)NC1=O)C(=O)N1CCC[C@H]1C(=O)N2 [Oxidized 15] (Ac-GCEKATESESPCPCIFPELCPWIVCC-NH2; disulfide 2-25, 12-26, 14-20)
Stability to heat treatment (aggregation) [1]: no aggregation was observed
Binding affinity to streptavidin (SPR), in words (streptavidin): no binding affinity
Binding affinity to Bcl-2 (SPR), in words (Bcl-2): no binding affinity
Stability toward proteolysis by chymotrypsin compared to linear analog (chymotrypsin; chymotrypsin 0.3 μg/mL, versus 15-Ala): significantly more stable

CC[C@H](C)[C@@H]1NC(=O)[C@H](CC(N)=O)NC(=O)[C@H](CCC(=O)O)NC(=O)[C@@H]2CCCN2C(=O)[C@@H]2CSSC[C@H](NC(=O)[C@@H]3CCCN3C(=O)[C@@H]3CSSC[C@@H](C(N)=O)NC(=O)[C@H](CSSC[C@H](NC(=O)CNC(C)=O)C(=O)N[C@@H](CCSC)C(=O)N[C@@H]([C@@H](C)CC)C(=O)N[C@@H](CC(C)C)C(=O)N[C@@H](CC(C)C)C(=O)N[C@@H](CC(=O)O)C(=O)N[C@@H]([C@@H](C)O)C(=O)N[C@@H](CC(=O)O)C(=O)N[C@@H]([C@@H](C)CC)C(=O)N[C@@H](Cc4c[nH]c5ccccc45)C(=O)N3)NC1=O)C(=O)N[C@@H](CO)C(=O)N[C@@H](Cc1c[nH]cn1)C(=O)N1CCC[C@H]1C(=O)N[C@@H](Cc1ccc(O)cc1)C(=O)N[C@@H](C)C(=O)N2 [Oxidized 16]
Stability to heat treatment (aggregation) [1]: no aggregation was observed
Binding affinity to streptavidin (SPR), in words (streptavidin): negligible binding affinity
Binding affinity to MDM2 (FP competition), in words (MDM2): negligible binding affinity
kd, binding kinetics with Bcl-2 (SPR) (Bcl-2; Biacore T200, 1:1 binding model, peptide 0.16–2.56 μM): 0.0498 s⁻¹
kon (Bcl-2; read-out: ka, binding kinetics with Bcl-2 (SPR)): 126000 M⁻¹ s⁻¹
Stability toward proteolysis by chymotrypsin compared to linear analog (chymotrypsin; chymotrypsin 5.0 μg/mL, versus 16-Ala): significantly more stable

CSCC[C@@H]1NC(=O)[C@@H]2CCCN2C(=O)[C@@H]2CSSC[C@H](NC(=O)[C@@H]3CCCN3C(=O)[C@@H](NC(=O)[C@H](Cc3ccccc3)NC(=O)[C@@H]3CSSC[C@H](NC(=O)CNC(C)=O)C(=O)NCC(=O)N[C@@H](CO)C(=O)N[C@@H](CC(=O)O)C(=O)N[C@@H](CCC(=O)O)C(=O)N[C@@H](C)C(=O)N3)CSSC[C@@H](C(N)=O)NC(=O)[C@H](Cc3c[nH]cn3)NC(=O)[C@H](CCC(N)=O)NC(=O)[C@H](C)NC1=O)C(=O)N[C@@H](CO)C(=O)N[C@@H](Cc1c[nH]cn1)C(=O)N1CCC[C@H]1C(=O)N[C@@H](CCC(=O)O)C(=O)N[C@@H](CC(N)=O)C(=O)N2 [compound 17] (Ac-GCGSDEACFCPCSHPENCPMAQHC-NH2; disulfide 2-8, 10-24, 12-18)
Binding affinity to MDM2 (FP competition), in words (MDM2): negligible binding affinity
Binding affinity to Bcl-2 (SPR), in words (Bcl-2): negligible binding affinity

Ac-CGSGSGSGCGCPCIWPELCPWIRSC-NH2 (also: bicyclic or more (positions not given here)) [compound 11, original peptide template of the 11-X14 library]
Binding affinity to streptavidin (SPR), in words (streptavidin): no binding affinity
